US20080039455A1, “PYRAZOLOPYRIMIDINES AND SALTS THEREOF, PHARMACEUTICAL COMPOSITIONS COMPRISING SAME, METHODS OF PREPARING SAME AND USES OF SAME” (priority 2006, published 2008)

Target: T1, human recombinant ALK1 (GST fused to ALK1 intracellular domain [His142-Gln503]) (Homo sapiens, UniProt P37023)
T1 construct: GST fused to ALK1 intracellular domain [His142-Gln503]; made in house
T1 sequence (P37023 142-503): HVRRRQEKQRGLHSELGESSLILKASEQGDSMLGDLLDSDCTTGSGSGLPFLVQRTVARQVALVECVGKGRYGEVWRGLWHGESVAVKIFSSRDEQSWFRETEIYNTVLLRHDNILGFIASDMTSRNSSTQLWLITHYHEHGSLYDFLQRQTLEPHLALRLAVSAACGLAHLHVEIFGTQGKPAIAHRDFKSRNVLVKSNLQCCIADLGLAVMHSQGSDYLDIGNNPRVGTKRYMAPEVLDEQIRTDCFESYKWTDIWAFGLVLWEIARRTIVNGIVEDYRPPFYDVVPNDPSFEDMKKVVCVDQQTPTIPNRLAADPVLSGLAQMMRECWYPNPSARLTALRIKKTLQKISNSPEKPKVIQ
Assay: ALK1-Kinase Flashplate-Assay
Assay type: biochemical
Conditions: 0.5 μM ATP, biotinylated α-casein substrate; read-out: Assay 1 (ALK1-Kinase Flashplate-Assay IC50 class)
Description: Biological Assay 1: ALK1-Kinase Flashplate-Assay
ALK1 phosphorylates serine/threonine residues of the biotinylated substrate bovine α-casein in the presence of [γ-^33P]ATP. Detection of the radiolabeled phosphorylated product is achieved by binding to streptavidine-coated Flashplates. The biotin moieties of biotinylated casein bind with high affinity to the streptavidine. The radiolabeled biotinylated casein produced by the ALK1 kinase reaction is able to generate a […] signal when strepatavidine-mediated binding occurs to the scintillant-containing surface of the Flashplates due to the close proximity of the radiolabel and the scintillant. […] The signals obtained are therefore indicative of the ALK1 kinase activity. Measurement is performed in a Perkin-Elmer TopCount or Perkin-Elmer ViewLux instrument.
Enzyme: Purified human recombinant ALK1 (GST fused to ALK1 intracellular domain [His142-Gln503]) produced in-house, aliquots stored at −80° C.;
Diluted enzyme working solution: 2.5 ng/μl ALK1 (in assay buffer) freshly prepared and chilled on ice until use.
Substrate: biotinylated bovine α-casein. Unbiotinylated casein obtained from Sigma was biotinylated by standard procedures using N-hydroxysuccinimide (NHS) ester of biotin.
Substrate working solution: 0.83 μM ATP, 1.67 μM biotinylated a-casein, 7.4 nCi [γ-^33P]ATP/μl in assay buffer
Assay plates: 384-well plates, small volume, white, Greiner (# 784075)
Flashplates: Streptavidin-coated Flashplates, Perkin Elmer (384-well # SPM410A)
Assay buffer: 50 mM Tris/HCl pH 8.0, 1 mM MnCl2, 1 mM DTT, 0.01% NP40, 0.5× Complete EDTA-free
Stop solution: 33.3 μM ATP, 33.3 mM EDTA, 0.07% Triton X-100 in PBS
Saturating buffer for Flashplates: 100 μM ATP, 0.2% Triton X-100 in PBS
Sealing tape: Greiner (# 676080)
Protocol for small volume 5 μl assay (all steps are performed at 20° C., pipetted with CyBi-Well and Multidrop Micro): • 1. 50 nl or 250 nl compound in 100% DMSO • 2. addition of 3 μl substrate working solution with CyBi-Well pipettor • 3. addition of 2 μl enzyme working solution with Multidrop Micro incubation for 60 min at room temperature • 4. addition of 15 μl Stop solution with CyBi-Well pipettor • 5. transfer of 18 μl assay mixture to Flashplates** with CyBi-Well pipettor incubation for at least 3 h at room temperature or over night at 4° C. to allow binding to the streptavidine-coated Flashplates • 6. washing the Flashplates 3 times with 50 μl PBS without Ca++ and Mg++ • 7. sealing with sealing tape • 8. Measurement in Topcount (60 sec/well) **Saturation of Flashplates: The Flashplates are preincubated for at least 1 hour with 50 μl saturating buffer. Remove 18 μl from the 50 μl and transfer 18 μl of the assay mixture to the Flashplate.
Final concentrations, calculated for 5 μl reaction volume: ALK1 5 ng/well; 1 μM biotinylated α-casein; 0.5 μM ATP; 22 nCi/well [γ-^33P]ATP; 1 mM MnCl2; 1 mM DTT; 50 mM Tris-HCl; pH 8.0; 0.01% NP40; 0.5× Complete EDTA-free; 1% or 5% DMSO.
The data were normalised (enzyme reaction without inhibitor=0% inhibition, enzyme reaction in the presence of 10 mM EDTA=100% inhibition) and IC50 values were calculated by a 4 parameter fit using an in-house software.

Structure (SMILES) | IC50 [µM]
NC(=O)c1cccc(-c2cnn3ccc(NC4CCC(O)CC4)nc23)c1 (stereo not shown) [Example 220, 3-[5-(4-Hydroxy-cyclohexylamino)-pyrazolo[1,5-a]pyrimidin-3-yl]-benzamide] | 1 to 10
FC(F)(F)c1cccc(-c2cnn3ccc(NCc4ccncc4)nc23)c1 [Example 397, Pyridin-4-ylmethyl-[3-(3-trifluoromethyl-phenyl)-pyrazolo[1,5-a]pyrimidin-5-yl]-amine] | 1 to 10
OC1CCC(Nc2ccn3ncc(-c4ccc(F)c(Cl)c4)c3n2)CC1 (stereo not shown) [Example 373, 4-[3-(3-Chloro-4-fluoro-phenyl)-pyrazolo[1,5-a]pyrimidin-5-ylamino]-cyclohexanol] | 1 to 10
OC1CCC(Nc2ccn3ncc(-c4ccc(F)cc4)c3n2)CC1 (stereo not shown) [Example 401, 4-[3-(4-Fluoro-phenyl)-pyrazolo[1,5-a]pyrimidin-5-ylamino]-cyclohexanol] | 1 to 10
Fc1cccc(-c2cnn3ccc(NCc4cccnc4)nc23)c1 [Example 405, [3-(3-Fluoro-phenyl)-pyrazolo[1,5-a]pyrimidin-5-yl]-pyridin-3-ylmethyl-amine] | 1 to 10
COc1ccc(Nc2ccn3ncc(-c4cccc(C(=O)NCCO)c4)c3n2)cn1 [Example 92, N-(2-Hydroxy-ethyl)-3-[5-(6-methoxy-pyridin-3-ylamino)-pyrazolo[1,5-a]pyrimidin-3-yl]-benzamide] | 1 to 10
c1cc(CNc2ccn3ncc(-c4ccc5c(c4)OCO5)c3n2)ccn1 [Example 61, (3-Benzo[1,3]dioxol-5-yl-pyrazolo[1,5-a]pyrimidin-5-yl)-pyridin-4-ylmethyl-amine] | < 1
Fc1ccc(-c2cnn3ccc(NCc4cccnc4)nc23)cc1Cl [Example 379, [3-(3-Chloro-4-fluoro-phenyl)-pyrazolo[1,5-a]pyrimidin-5-yl]-pyridin-3-ylmethyl-amine] | 1 to 10
c1ccc(Cn2cc(-c3cnn4ccc(NCc5ccncc5)nc34)cn2)cc1 [Example 219, [3-(1-Benzyl-1H-pyrazol-4-yl)-pyrazolo[1,5-a]pyrimidin-5-yl]-pyridin-4-ylmethyl-amine] | 1 to 10
COc1cc(-c2cnn3ccc(Nc4cc(OC)c(OC)c(OC)c4)nc23)ccc1O [Example 424, 2-Methoxy-4-[5-(3,4,5-trimethoxy-phenylamino)-pyrazolo[1,5-a]pyrimidin-3-yl]-phenol] | 1 to 10
Oc1ccc(Nc2ccn3ncc(-c4ccc5c(c4)OCO5)c3n2)cc1 [Example 45, 4-(3-Benzo[1,3]dioxol-5-yl-pyrazolo[1,5-a]pyrimidin-5-ylamino)-phenol] | 1 to 10
COc1cc(-c2cnn3ccc(NCc4ccncc4)nc23)cc(OC)c1OC [Example 418, Pyridin-4-ylmethyl-[3-(3,4,5-trimethoxy-phenyl)-pyrazolo[1,5-a]pyrimidin-5-yl]-amine] | < 1
CC(=O)Nc1ccc(Nc2ccn3ncc(-c4cccc(N(C)C)c4)c3n2)cc1 [Example 331, N-{4-[3-(3-Dimethylamino-phenyl)-pyrazolo[1,5-a]pyrimidin-5-ylamino]-phenyl}-acetamide] | 1 to 10
Oc1ccc(Nc2ccn3ncc(-c4ccsc4)c3n2)cc1 [Example 48, 4-(3-Thiophen-3-yl-pyrazolo[1,5-a]pyrimidin-5-ylamino)-phenol] | < 1
COc1ccc(-c2cnn3ccc(Nc4ccc(OC)nc4)nc23)cc1 [Example 425, [3-(4-Methoxy-phenyl)-pyrazolo[1,5-a]pyrimidin-5-yl]-(6-methoxy-pyridin-3-yl)-amine] | 1 to 10
c1ccc2sc(-c3cnn4ccc(NCc5ccncc5)nc34)cc2c1 [Example 64, (3-Benzo[b]thiophen-2-yl-pyrazolo[1,5-a]pyrimidin-5-yl)-pyridin-4-ylmethyl-amine] | < 1

Structure (SMILES) | IC50 [µM]
OCCNc1ccn2ncc(-c3ccc(O)cc3)c2n1 [Example 74, 4-[5-(2-Hydroxy-ethylamino)-pyrazolo[1,5-a]pyrimidin-3-yl]-phenol] | 1 to 10
COc1cncc(-c2cnn3ccc(NC4CCC(O)CC4)nc23)c1 (stereo not shown) [Example 116, 4-[3-(5-Methoxy-pyridin-3-yl)-pyrazolo[1,5-a]pyrimidin-5-ylamino]-cyclohexanol] | 1 to 10
COc1ccc(-c2cnn3ccc(Nc4ccc5[nH]ccc5c4)nc23)cc1OC [Example 17, [3-(3,4-Dimethoxy-phenyl)-pyrazolo[1,5-a]pyrimidin-5-yl]-(1H-indol-5-yl)-amine] | < 1
COc1ccc(Nc2ccn3ncc(-c4cccc(N(C)C)c4)c3n2)cn1 [Example 332, [3-(3-Dimethylamino-phenyl)-pyrazolo[1,5-a]pyrimidin-5-yl]-(6-methoxy-pyridin-3-yl)-amine] | 1 to 10
Cc1csc(-c2cnn3ccc(NCc4cccnc4)nc23)c1 [Example 172, [3-(4-Methyl-thiophen-2-yl)-pyrazolo[1,5-a]pyrimidin-5-yl]-pyridin-3-ylmethyl-amine] | 1 to 10
c1ccc(Nc2ccn3ncc(-c4ccsc4)c3n2)cc1 [Example 280, Phenyl-(3-thiophen-3-yl-pyrazolo[1,5-a]pyrimidin-5-yl)-amine] | 1 to 10
COc1cc(-c2cnn3ccc(Nc4ccc(C(C)C)cc4)nc23)cc(OC)c1OC [Example 97, (4-Isopropyl-phenyl)-[3-(3,4,5-trimethoxy-phenyl)-pyrazolo[1,5-a]pyrimidin-5-yl]-amine] | < 1
COc1ccc(Nc2ccn3ncc(-c4cnn(Cc5ccccc5)c4)c3n2)cn1 [Example 199, [3-(1-Benzyl-1H-pyrazol-4-yl)-pyrazolo[1,5-a]pyrimidin-5-yl]-(6-methoxy-pyridin-3-yl)-amine] | 1 to 10
c1ccc(Oc2ccc(Nc3ccn4ncc(-c5ccncc5)c4n3)cc2)cc1 [Example 468, (4-Phenoxy-phenyl)-(3-pyridin-4-yl-pyrazolo[1,5-a]pyrimidin-5-yl)-amine] | 1 to 10
COc1ccc(-c2cnn3ccc(NCc4cccnc4)nc23)cc1 [Example 167, [3-(4-Methoxy-phenyl)-pyrazolo[1,5-a]pyrimidin-5-yl]-pyridin-3-ylmethyl-amine] | 1 to 10
CC(=O)Nc1cccc(-c2cnn3ccc(Nc4cccc(Cl)c4)nc23)c1 [Example 453, N-{3-[5-(3-Chloro-phenylamino)-pyrazolo[1,5-a]pyrimidin-3-yl]-phenyl}-acetamide] | 1 to 10
Cc1ccc(S(=O)(=O)Nc2ccc(Nc3ccn4ncc(-c5ccncc5)c4n3)cc2)cc1 [Example 51, 4-Methyl-N-[4-(3-pyridin-4-yl-pyrazolo[1,5-a]pyrimidin-5-ylamino)-phenyl]-benzenesulfonamide] | < 1
Oc1cccc(-c2cnn3ccc(NCc4cccnc4)nc23)c1 [Example 168, 3-{5-[(Pyridin-3-ylmethyl)-amino]-pyrazolo[1,5-a]pyrimidin-3-yl}-phenol] | < 1
COc1ccc(-c2cnn3ccc(Nc4ccccc4)nc23)cc1OC [Example 478, [3-(3,4-Dimethoxy-phenyl)-pyrazolo[1,5-a]pyrimidin-5-yl]-phenyl-amine] | 1 to 10
Cc1ccc(Nc2ccn3ncc(-c4ccc(O)cc4)c3n2)cc1NS(C)(=O)=O [Example 60, N-{5-[3-(4-Hydroxy-phenyl)-pyrazolo[1,5-a]pyrimidin-5-ylamino]-2-methyl-phenyl}-methanesulfonamide] | < 1
